Test system: Hurley RI 000 tumor infiltrating lymphocytes (cytotoxic T cell specific for the G9-209 epitope encoded by the human melanoma associate protein gp100)
Test: sensitization of tumor infiltrating lymphocytes and interferon-γ release
Format: cell-based
Details: Hurley RI 000 TIL, G9-209 (gp100) specific
Excerpt: This invention provides novel, synthetic peptide sequences which are useful as components of melanoma vaccines and to expand immune effector cells that are specific for melanoma. […] These assay methods are known in the art and disclosed in Zugel, U. et al. (1998) J Immunol. 161:1705-1709) and Salgaller, M. L. et al. (1995) Infra. The peptide sequences of the present invention differ from the natural epitope (ITDQVPFSV) (Seq. ID No. 5) in two ways: (1) they contain mutation sin the putative HLA-A2 binding domain (amino acid residues 1, 2, and 9) conferring tighter binding to the MHC, and (2) they contain mutations in the putative T cell receptor-binding domain (amino acid residues 3-8) resulting in an apparent increased avidity for the T cell receptor. They also are novel over the synthetic peptides disclosed by Salgaller, et al. (1995) Cancer Res. 55:4972-4979.

## FLDQVAFXV
  sensitize tumor infiltrating lymphocytes and interferon-γ release: shown to sensitize

## FLFSWYAXV
  sensitize tumor infiltrating lymphocytes and interferon-γ release: shown to sensitize

— patent US20040014697A1, “Melanoma antigenic peptides” (priority 1998, published 2004)
